“Also recorded” adds a separate entry of the source.
What was measured:
rTR alpha = molecular target: T1, rTR alpha (Rattus norvegicus, UniProt P63059); assay: ^125I-T3 binding to in vitro translated rTR alpha (Scatchard and competition); settings: for competition for T3 binding to rTR alpha by excess compound: excess competitor
T1 construct: made in house; host or cells: rabbit reticulocyte lysate (SP6 transcripts of rbeA12B)
T1 sequence (P63059 1-410 isoform P63059-2): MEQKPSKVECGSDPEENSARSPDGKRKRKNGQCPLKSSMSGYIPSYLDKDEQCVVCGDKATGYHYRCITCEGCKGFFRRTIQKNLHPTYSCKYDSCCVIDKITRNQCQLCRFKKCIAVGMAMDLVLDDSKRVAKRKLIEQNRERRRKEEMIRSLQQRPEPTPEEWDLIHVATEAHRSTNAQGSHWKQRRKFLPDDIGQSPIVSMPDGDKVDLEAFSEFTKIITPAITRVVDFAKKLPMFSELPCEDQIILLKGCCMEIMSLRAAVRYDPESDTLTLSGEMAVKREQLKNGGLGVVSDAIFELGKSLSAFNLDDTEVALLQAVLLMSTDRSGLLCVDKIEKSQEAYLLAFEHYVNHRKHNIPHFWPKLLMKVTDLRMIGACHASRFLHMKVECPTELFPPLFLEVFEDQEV
From the text: In vitro translation and thyroid hormone binding of rTR alpha FIG. 69 rTR alpha was transcribed in vitro and translated in a rabbit reticulocyte lysate. […] Lane 1, no added RNA; lane 2, rbeA12, which contains the entire 5′ untranslated region; lane 3, rbeA12B, which contains only 97 bp of 5′ untranslated sequence. […] Samples from rbeA12B programmed lysates were mixed with increasing concentrations of unlabeled thyroid hormone or analogs to compete with labeled hormone. […] In vitro transcription and translation and hormone binding were performed as described (22, 23).
23. For in vitro transcription, the entire EcoRI insert of rbeA12 was cloned into pGEM1 (Promega Biotec). […] For thyroid hormone binding, transcriptions were performed with SP6 polymerase and 5 to 10 micrograms of rbeA12B linearized with SstI. […] Thyroid hormone binding for both the Scatchard and competition analyses were determined in the same manner, except that unlabeled protein was used for the Scatchard analysis. […] Specific hormone binding was determined by adding a 1000-fold excess of unlabeled hormone and assayed by counting radioactivity eluting in the excluded volume from a Sephadex G-25 fine (Pharmacia) 0.9-by 4.0-cm. column.

hMR = molecular target: T2, hMR (Homo sapiens, UniProt P08235); assay: [^3H]aldosterone binding and steroid competition in extracts of pRShMR-transfected COS cells; set-up: expressed in transfected cells; host or cells: COS cells transfected with pRShMR (DEAE-dextran); settings: 1-, 10-, or 100-fold molar excess of unlabeled steroid
T2 sequence (P08235 1-984): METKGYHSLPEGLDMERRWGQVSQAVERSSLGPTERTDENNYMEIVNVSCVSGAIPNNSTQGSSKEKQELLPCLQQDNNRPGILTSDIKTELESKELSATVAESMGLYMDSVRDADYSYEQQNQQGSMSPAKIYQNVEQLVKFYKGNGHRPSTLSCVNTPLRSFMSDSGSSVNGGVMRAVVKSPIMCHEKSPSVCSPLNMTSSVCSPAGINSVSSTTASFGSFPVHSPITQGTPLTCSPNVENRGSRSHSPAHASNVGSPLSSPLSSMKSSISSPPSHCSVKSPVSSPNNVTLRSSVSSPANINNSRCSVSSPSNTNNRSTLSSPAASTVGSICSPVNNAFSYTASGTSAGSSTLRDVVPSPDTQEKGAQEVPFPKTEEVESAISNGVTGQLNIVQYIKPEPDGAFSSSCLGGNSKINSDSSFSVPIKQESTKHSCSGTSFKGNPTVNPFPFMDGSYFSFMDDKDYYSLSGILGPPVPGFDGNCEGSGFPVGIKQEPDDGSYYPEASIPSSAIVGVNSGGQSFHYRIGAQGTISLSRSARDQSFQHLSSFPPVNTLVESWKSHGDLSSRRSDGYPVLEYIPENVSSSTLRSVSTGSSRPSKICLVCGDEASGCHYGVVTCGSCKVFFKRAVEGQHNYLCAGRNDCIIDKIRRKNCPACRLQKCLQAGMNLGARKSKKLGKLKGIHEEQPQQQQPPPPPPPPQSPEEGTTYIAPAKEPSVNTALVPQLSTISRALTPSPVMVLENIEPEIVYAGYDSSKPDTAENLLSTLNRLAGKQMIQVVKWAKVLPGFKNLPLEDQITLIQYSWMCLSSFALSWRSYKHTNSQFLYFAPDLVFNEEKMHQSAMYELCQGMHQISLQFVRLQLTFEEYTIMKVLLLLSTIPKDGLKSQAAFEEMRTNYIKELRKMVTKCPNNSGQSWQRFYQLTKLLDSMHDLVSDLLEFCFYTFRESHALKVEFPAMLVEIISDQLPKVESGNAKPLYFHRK
Protocol: Ligand specificity of the hMR protein was determined by preparing cytosol extracts from COS cells transfected with pRShMR. Two days after transfection, cells were harvested, and hormone binding was measured by a dextran-treated charcoal assay. […] This provided a measure of the relative affinity of each of these steroids for hMR.
Steroid-binding properties of expressed hMR. FIG. 38 Structure of pRShMR, the hMR expression plasmid (41). […] Each point was assayed in triplicate with 100 micrograms of extract protein in a 200-microliter incubation at 0° C. for 2.5 hours. […] The results of two independent trials representative of these competition experiments are shown. Cold competitor was present in 1-, 10-, or 100-fold molar excess. […] Subconfluent COS cells were transfected by the DEAE-dextran method (42) with 10 micrograms of pRShMR per dish. Cells were maintained for 2 days in DMEM (Dulbecco's modification of Eagle's minimum essential medium) with 5 percent charcoal-treated fetal calf serum, then harvested in […] tris-HCl. (pH 7.8), 10 nM NaCl, 1 mM EDTA, 10 mM Na2MoO4, 5 mM dithiothreitol, antipain (5 microgram/ml), leupeptin (5 microgram/ml), and 500 microM phenylmethylsulfonyl fluoride. After centrifugation at 15,000×g for 10 minutes, extracts were adjusted to 100 mM NaCl and 5 percent glycerol before binding. […] After centrifugation at 15,000×g for 2 minutes at 40C, tritium in supernatant was quantified by liquid scintillation spectrophotometry.

GR = molecular target: T3, GR (Homo sapiens, UniProt P04150); assay: hGR functional assay: CAT activity in CV-1 cells cotransfected with pRShGR alpha (or mutant) and pMTVCAT; assay type: cell-based; set-up: The expression vector linking the RSV LTR to full length hGR cDNA (pRShGR alpha) was designed to obtain high levels of expression; expressed in transfected cells; host or cells: CV-1 monkey kidney cells, cotransfected with pMTVCAT; settings: 100 nM steroid, cotransfected CV-1 cells
T3 sequence (P04150 1-777): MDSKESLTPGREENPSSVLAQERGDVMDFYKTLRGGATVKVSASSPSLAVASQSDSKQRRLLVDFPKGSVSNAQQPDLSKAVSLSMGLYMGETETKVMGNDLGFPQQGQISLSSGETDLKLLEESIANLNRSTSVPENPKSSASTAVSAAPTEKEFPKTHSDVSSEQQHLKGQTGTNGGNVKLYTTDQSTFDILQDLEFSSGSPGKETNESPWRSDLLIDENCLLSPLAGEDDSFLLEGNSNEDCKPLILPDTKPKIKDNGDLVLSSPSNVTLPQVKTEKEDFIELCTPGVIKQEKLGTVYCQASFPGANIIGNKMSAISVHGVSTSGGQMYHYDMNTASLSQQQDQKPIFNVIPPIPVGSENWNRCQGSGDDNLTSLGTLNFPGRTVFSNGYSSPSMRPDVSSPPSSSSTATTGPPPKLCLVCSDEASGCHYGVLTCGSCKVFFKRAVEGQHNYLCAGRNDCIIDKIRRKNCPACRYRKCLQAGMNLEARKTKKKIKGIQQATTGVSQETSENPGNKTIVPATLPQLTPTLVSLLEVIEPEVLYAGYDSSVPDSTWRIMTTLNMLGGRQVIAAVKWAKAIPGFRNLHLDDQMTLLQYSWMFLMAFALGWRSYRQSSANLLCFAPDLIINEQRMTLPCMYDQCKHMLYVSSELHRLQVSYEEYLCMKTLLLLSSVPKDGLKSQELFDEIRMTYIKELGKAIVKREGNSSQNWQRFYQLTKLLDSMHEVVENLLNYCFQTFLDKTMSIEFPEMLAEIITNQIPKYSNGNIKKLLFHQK
From the text: The assay system and strategy used to study the expression of functional hGR from the cloned cDNA (See Experimental Section I) is shown in FIG. 11. In these experiments, a glucocorticoid-responsive promoter/enhancer element linked to a reporter gene was introduced into a receptor-negative cell. […] For our assay, we chose to use the MTV LTR fused to the sequence coding for chloramphenicol acetyltransferase (CAT) (EC2.3.1.28). […] Cotransfection of pMTVCAT (or pGMCAT) with a receptor expression plasmid provides functional receptors that allow induction of CAT activity upon treatment of the transfected cells with glucocorticoid hormone. In addition, biochemical studies such as steroid binding activity and Western blot analysis of the expressed receptors can be performed simultaneously.
The cells are then cultured in the presence or absence of hormone. CV-1 cells were used to monitor induction of CAT activity, and COS cells were used to measure steroid-binding capacity and the expression of hGR protein.
CAT assays were performed as indicated in Experimental Procedures (See Section II. F.). C, chloramphenicol; AC, 3-acetylchloramphenicol.
The levels of CAT activity were plotted as percentages of the maximal response observe in a particular experiment.
Each plasmid preparation used for transfection was purified using two consecutive CsCl-EtBr equilibrium gradients. […]

Row | Structure (SMILES) | relative affinity for hMR by competition with 5 nM [^3H]aldosterone (in words) (hMR) | competition for T3 binding to rTR alpha by excess compound (rTR alpha) | further results
1 | N[C@@H](Cc1cc(I)c(Oc2cc(I)c(O)c(I)c2)c(I)c1)C(=O)O [L-thyroxine] |  |  | competition for ^125I-T3 binding to rTR alpha (in words) (rTR alpha; in vitro translated rTR alpha): same characteristic affinities
2 | C[C@]12C[C@H](O)[C@H]3[C@@H](CCC4=CC(=O)CC[C@@]43C)[C@@H]1CC[C@@H]2C(=O)CO [corticosterone] | very similar affinities; also recorded: compete as effectively as aldosterone itself |  | 
3 | C[C@]12CC[C@H]3[C@@H](CCC4=CC(=O)CC[C@@]43C)[C@@H]1CC[C@@H]2C(=O)CO [deoxycorticosterone] | very similar affinities; also recorded: compete as effectively as aldosterone itself |  | 
4 | CC(=O)[C@H]1CC[C@H]2[C@@H]3CCC4=CC(=O)CC[C@]4(C)[C@H]3CC[C@]12C [progesterone] |  | no competition | 
5 | CC(=O)S[C@@H]1CC2=CC(=O)CC[C@]2(C)[C@H]2CC[C@@]3(C)[C@@H](CC[C@@]34CCC(=O)O4)[C@H]12 [spironolactone] | weaker binding affinity |  | 
6 | C[C@]12CC[C@H]3[C@@H](CCC4=CC(=O)CC[C@@]43C)[C@@H]1CC[C@@H]2O [testosterone] |  | no competition | induction of CAT activity by steroid (GR): failed to induce CAT activity
7 | C=C1CC[C@H](O)C/C1=C/C=C1\CCC[C@]2(C)[C@@H]([C@H](C)CCCC(C)C)CC[C@@H]12 [vitamin D3] |  | no competition | 

From patent publication US6806359B1, “Hormone receptor compositions and methods” (The Salk Institute for Biological Studies, priority 1986, dated 2004)
